# Legend:
# Lgr5-negative colon CSCs = experiment: Cell proliferation / chemosensitivity assay (Cell Counting Kit-8); type: cell-based, human; settings: for proliferation and survival of Lgr5-negative colon CSCs: 10 μg/ml, three days; for resistance of Lgr5-negative CSCs (percentage of viable cells relative to non-treated control): PLR59 and PLR123, cultured three days at each concentration (FIG. 45)
# Protocol: (§1) Tissues of xenograft were cut with a razor blade in order to prepare single cancer cell suspensions. After the suspensions were incubated at 37° C. for 3 hours in DPBS containing collagenase/dispase (Roche) and DNaseI (Roche), the suspensions were filtered through 40-μm Cell Strainers (BD Biosciences). The cells were suspended in the lysis buffer (BD Biosciences) to remove erythrocytes. The prepared xenograft-derived cells were cultured under 5% CO2 atmosphere at 37° C. in DMEM/F12 (Invitrogen) containing N-2 Supplement (Invitrogen), 20 ng/ml human EGF (Invitrogen), 10 ng/ml human basic fibroblast growth factor (Sigma), 4 μg/ml heparin (Sigma), 4 mg/ml BSA (Invitrogen), 20 μg/ml human insulin zinc solution (Invitrogen), and 2.9 mg/ml glucose (Sigma) (Todaro M, et al. (2007) Cell Stem Cell 1: 389-402). Adherent and floating CSCs were cultured using conventional polystyrene-treated cell culture flasks (BD Biosciences) and Ultra-low attachment cell culture flasks (Corning), respectively.
# (§2) Floating and adherent cells were plated at about 100 and 1×10^4 cells/well in 96-well plates, respectively. On days 0 and 3, viable cell counts were determined by the Cell Counting Kit-8 Assay (Doujindo) according to the manufacturer's protocol. Average absorbance on day 0 was taken as 100%. For chemosensitivity assay, floating and adherent cells were plated at about 100 and 1×10^4 cells/well in 96-well plates, respectively. […] After three days of culture in the presence of the agents, the Cell Counting Kit-8 was added to the cells. The average absorbance of cells exposed to DMSO or medium alone was taken as 100%. All experiments were performed in triplicate.
# Lgr5-positive colon CSCs [1] = experiment: as above; type: cell-based, human
# Protocol: as §1, §2
# Lgr5-positive colon CSCs [2] = experiment: Transition of Lgr5-positive colon CSCs to the Lgr5-negative state after drug exposure (flow cytometry, immunostaining, qPCR); type: cell-based, human; settings: for Lgr5 expression by IHC (antibody 2L36): adherent condition, 24 hours with drug, then 48 hours without drug; for Lgr5 state of drug-resistant cells: three-day exposure of Lgr5-positive colon CSCs
# Protocol: Colon CSCs were incubated with mouse anti-human Lgr5 antibody (2T15E-2) and then with […] rat anti-mouse IgG antibody (Invitrogen) to stain Lgr5. The aldehyde dehydrogenase activity was measured using the AldeFluor Kit (Stemcell Technologies). Mouse cells were discriminated from human colon CSCs by staining with anti-mouse MHC class I antibody (Abcam), and PE- or APC-labeled goat […] antibody (BioLegend). Dead cells were also removed using the 7-AAD Viability Dye (Beckman Coulter).
# Total RNAs were isolated using the RNeasy Mini Kit including DNAase treatment (Qiagen). cDNAs were synthesized using the First-Strand cDNA Synthesis Kit (SABiosciences). Quantitative real-time PCR (QRT-PCR) analysis was performed with the SYBR Green/Rox qPCR (SABiosciences) using the Mx3005P Real-Time PCR System (Stratagene). The fold induction value was calculated according to the 2-ΔΔCt method. GAPDH and ACTB were used as a reference. All experiments were performed in triplicate.
# For immunofluorescent cytochemistry, cells were fixed with 4% paraformaldehyde and methanol, and incubated with a mouse anti-human E-cadherin antibody (Abcam), rabbit anti-human Snail antibody (Abcam), or rabbit anti-human β-catenin antibody (Sigma)). Then, the cells were visualized using the AlexaFluor 488-labeled goat anti-mouse IgG antibody or goat anti-rabbit IgG antibody. For immunofluorescent cytochemistry, the fixed cells and thin sections derived from paraffin blocks of xenograft tumors were incubated with a mouse anti-human Lgr5 antibody (2U2E-2) or rabbit anti-human Snail antibody (Abcam), rabbit anti-human HLA-DMA antibody (Sigma), rabbit anti-TMEM173 antibody (Abcam), rabbit anti-human ZMAT3 antibody (Abcam), or rabbit anti-human GPR110 antibody (Abcam). After incubation with the primary antibody, Lgr5 protein was detected with a goat anti-mouse antibody conjugated with polymer-HRP (DAKO) and visualized with AlexaFluor 488-labeled tyramide (Invitrogen), while Snail, HLA-DMA, and TMEM173 proteins were detected with a biotinylated goat anti-rabbit antibody (VECTOR) and visualized with AlexaFluor 568-labeled streptavidin (Invitrogen). These cells and samples were also stained with DAPI (Invitrogen). ZMAT3 and GPR110 proteins were detected with a goat anti-rabbit antibody conjugated with polymer HRP (DAKO) and visualized with diaminobenzidine. The cells and samples were stained with Mayer's hematoxylin (Muto Pure Chemicals Co.).
# In addition, the present inventors carried out examinations to assess whether Lgr5-negative colon CSCs undergo a transition into an Lgr5-positive state. […] On the other hand, when Lgr5-positive adherent colon CSCs were cultured in an ultra low adherent plate, the present inventors observed that some of the cells halted their growth and formed a spheroid-like structure and that the Lgr5 mRNA level was very low (FIGS. 12 and 33). The transition from the Lgr5-positive to Lgr5-negative state (and the reverse) was also confirmed by observations using a single cell in culture. […] When single Lgr5-negative cells prepared via irinotecan treatment were individually cultured in a multi-well plate in the absence of irinotecan, 19 to 43% of the cells underwent a transition into the Lgr5-positive state within four days (FIG. 47 and Table 5).
# Lgr5-positive cells were incubated under an adherent condition in the presence of 5-FU or oxaliplatin for 24 hours, and then cultured in the absence of the drug for 48 hours. The cells were analyzed for the expression of Lgr5 by IHC using an anti-Lgr5 antibody (antibody 2L36). […] Next, Lgr5-negative cells sorted using MoFlo XDP cell sorter and treated with 5-FU or oxaliplatin were cultured for four days in the absence of the drug. The cells were analyzed for Lgr5 expression.
# [3] = tested on: tumors derived from LGR5-positive CSCs (PLR123); experiment: Irinotecan treatment of NOG mice bearing tumors derived from Lgr5-positive CSCs; type: in vivo
# Protocol: Mice bearing tumors derived from LGR5-positive CSCs (PLR123) were treated with irinotecan, and their tumors were observed. Irinotecan or vehicle was administered to mice at days 12, 15, and 18 after tumor grafting. Scale bar represents 25 μm.
# FIG. 53 Irinotecan was administered at a dose of 120 mg/kg/day to NOG mice at days 12, 15, and 18 after grafting tumors derived from LGR5-positive CSCs (PLR123). This figure is a graph showing tumor volumes in control mice administered with vehicle (closed diamond) and mice administered with irinotecan (closed square or triangle). Each value represents mean±standard deviation.
# FIG. 54 is a graph showing the numbers of Lgr5-positive and HLA-DMA-positive cells in xenograft tumor tissues. Thin sections of tissues were treated with Lgr5 antibody and HLA-DMA antibody, and then the numbers of Lgr5-positive and HLA-DMA-positive cells were counted. Values represent the total numbers of cells counted for respective groups (n=3).
# To probe the possibility of in vivo transition to a growth inhibitor-resistant state, irinotecan was administered at the maximum tolerated dose (MTD) (120 mg/kg) into the peritoneal cavities of NOG mice bearing tumors derived from Lgr5-positive CSCs. […] By contrast, in vehicle-treated control mice, about one third of cancer cells were positive for Lgr5 in both ductal and budding areas (FIG. 52). Both Lgr5-positive cells and HLA-DMA-positive and Lgr5-negative cells were positive for EREG, and were identified to be CSCs (FIG. 52). After irinotecan treatment, Lgr5-positive cells appeared again (FIG. 52). Furthermore, xenografts were excised from mice on day 21 after transplantation of irinotecan-treated or non-treated Lgr5-positive cells. Sections from the xenografts were double-stained with an anti-Ki67 antibody and an anti-Lgr5 antibody or an anti-HLA-DMA antibody. The result of double staining for Ki67 and Lgr5 or HLA-DMA, which is a marker for Lgr5-negative cells, also confirmed a correlation between Lgr5 expression and Ki67 staining in xenografts, similarly to the observation using in vitro cultured cells. Specifically, the Lgr5-positive cells were positive for Ki67, while the Lgr5-negative/HLA-DMA-positive cells were negative for Ki67 (FIG. 65).
# [4] = 120 mg/kg into the peritoneal cavity
structure (smiles),measurement,setting,value
"O=c1[nH]cc(F)c(=O)[nH]1 [5-FU, fluorouracil]",proliferation and survival of Lgr5-negative colon CSCs,Lgr5-negative colon CSCs,did not affect the proliferation and survival
same,resistance of Lgr5-negative CSCs (percentage of viable cells relative to non-treated control),Lgr5-negative colon CSCs,fully resistant
same,proliferation of Lgr5-positive colon CSCs,"Lgr5-positive colon CSCs [1]; 10 μg/ml, three days",significantly inhibited the proliferation
same,Lgr5 expression by IHC (antibody 2L36),Lgr5-positive colon CSCs [2],most of the Lgr5-positive cells underwent transition into the Lgr5-negative state
same,Lgr5 state of drug-resistant cells,Lgr5-positive colon CSCs [2],negative for Lgr5
Cc1cc([N+](=O)[O-])ccc1NS(=O)(=O)c1cc(Cl)ccc1Cl [FH535],proliferation of Lgr5-negative colon CSCs,"Lgr5-negative colon CSCs; 50 μM, three days of culture",had no effect on the proliferation
same,proliferation of Lgr5-positive colon CSCs,"Lgr5-positive colon CSCs [1]; 50 μM, three days of culture",significantly reduced the proliferation
COc1cc(O)cc(O)c1C(=O)/C=C/c1ccccc1 [cardamonin],viable cell count,"Lgr5-negative colon CSCs; 50 μM, three days of culture, Lgr5-negative colon CSCs, relative to DMSO alone",about 50%
same,viable cell count,"Lgr5-positive colon CSCs [1]; 50 μM, three days of culture, Lgr5-positive colon CSCs, relative to DMSO alone",70%
CCc1c2c(nc3ccc(OC(=O)N4CCC(N5CCCCC5)CC4)cc13)-c1cc3c(c(=O)n1C2)COC(=O)[C@]3(O)CC [irinotecan],proliferation and survival of Lgr5-negative colon CSCs,Lgr5-negative colon CSCs,did not affect the proliferation and survival
same,resistance of Lgr5-negative CSCs (percentage of viable cells relative to non-treated control),Lgr5-negative colon CSCs,fully resistant
same,proliferation of Lgr5-positive colon CSCs,"Lgr5-positive colon CSCs [1]; 10 μg/ml, three days",significantly inhibited the proliferation
same,tumor growth,"[3]; 120 mg/kg (MTD) into the peritoneal cavity, days 12, 15 and 18 after grafting",inhibited almost completely
same,Lgr5-positive cells in tumor,[3]; [4],dramatic decrease
same,ductal structures of tumor,[3]; [4],collapsed extensively
same,number of Lgr5-negative and HLA-DMA-positive cells in tumor,[3]; [4],increased significantly
same,level of Lgr5 mRNA (quantitative real-time PCR),Lgr5-positive colon CSCs [2]; Lgr-negative cells after irinotecan treatment (FIG. 43),almost undetectable
same,fluorescence representing Lgr5 positivity,"Lgr5-positive colon CSCs [2]; PLR123, before vs after irinotecan treatment (FIG. 42)",disappeared after the treatment
same,ALDH activity,Lgr5-positive colon CSCs [2]; after irinotecan treatment,reduced
same,Lgr5 state of single Lgr5-positive cells cultured individually,"Lgr5-positive colon CSCs [2]; multi-well plate, within three days after irinotecan treatment",underwent a transition into the Lgr5-negative state
same,Lgr5 state of drug-resistant cells,Lgr5-positive colon CSCs [2],negative for Lgr5
O=C1[O][Pt]2([NH][C@@H]3CCCC[C@H]3[NH]2)[O]C1=O [oxaliplatin],Lgr5 expression by IHC (antibody 2L36),Lgr5-positive colon CSCs [2],most of the Lgr5-positive cells underwent transition into the Lgr5-negative state

# Source: patent US10018630B2, “Cancer stem cell isolation” (CHUGAI SEIYAKU KABUSHIKI KAISHA, priority 2011, dated 2018)
